The test has as its system mTOR. Briefly: mTOR activity by immunoblotting in HeLa cells (wildtype and TSC2-deleted). The format is cell-based. The following applies: 100 μM GPN 1 h. On the procedure: (A) Analysis of mTOR activity in TSC2-deleted (TSC2−/−) and wildtype (TSC2WT) HeLa cells treated with 100 μM GPN in full medium (Full) or starved in EBSS for 1 h. mTOR activity was monitored by immunoblotting analysis of S6K1 (T389) phosphorylation (phosphorylated S6K (p-T389) relative to total S6K). Ctrl, control (untreated cells). (B) Co-immunoprecipitation analysis of changes in interactions between Ragulator and Rag GTPases following treatment with GPN. HEK293T cells stably expressing FLAG-metap2 (control) or FLAG-p14 were treated with 100 μM GPN in full medium for 1 h. Cell lysates were immunoprecipitated (IP) with anti-FLAG antibody and immunoblotted for endogenous RagA or RagC. […] (D) Analysis of mTOR activity in HEK293T cells or HEK293T cells stably expressing constitutively active RagB GTPase (RagBQ99L) treated with 100 μM GPN in full medium or starved in EBSS for 1 h. mTOR activity was monitored as in A. Data, means±SEM, (n=3), † not significant, **p<0.01, ANOVA. […] (F) Quantification by HC of overlaps between mTOR and LAMP2 (representative images shown in FIG. S2C) in HEK293T cells and HEK293T cells stably expressing constitutively active RagB GTPase (RagBQ99L) treated with 100 μM GPN in full medium for 1 h. Data, means±SEM, n≥3 independent experiments (500 primary objects counted per well; ≥5 wells/sample per each experiment); † p≥0.05, *p<0.05, ANOVA. […]
(In general: Immunoblotting shows a protein as a band on a membrane.)

Peptide text beside a SMILES is read from it.

Take `NCC(=O)N[C@@H](Cc1ccccc1)C(=O)Nc1ccc2ccccc2c1` [GPN, glycyl-L-phenylalanine 2-naphththylamide] (HELM PEPTIDE1{G.F.[c1ccc2cc(N[*:1])ccc2c1]}$$$$V2.0): the “mTOR activity in different cell lines” value (HeLa cells, comparable to starvation) is reported as “inhibited mTOR activity”. Under “TSC2-deleted HeLa cells”, the “mTOR activity in cells null for TSC2” value is “inhibited mTOR”.

(Values after US20210069295A1, “GALECTINS CONTROL MTOR IN RESPONSE TO ENDOMEMBRANE DAMAGE AND PROVIDE A MECHANISM AND TARGET FOR THE TREATMENT OF AUTOPHAGY-RELATED DISEASES” (STC. UNM, priority 2017, published 2021).)
